Test results: patent US20220193047A1, “METHODS OF ENHANCING RADIOTHERAPY USING FERROPTOSIS INDUCERS AS RADIOSENSITIZERS” (THE TRUSTEES OF COLUMBIA UNIVERSITY IN THE CITY OF NEW YORK, priority 2019, published 2022)

Key:
[1] = test system: lipid species in HT-1080 cells; assay: Mass spectrometry-based untargeted lipidomics; type: cell-based
Description: Homogenized samples were transferred to fresh glass tubes containing 850 mL of cold methyl-tertbutyl ether (MTBE) and vortex-mixed for 30 sec. To enhance extraction efficiency of lipids, the samples were incubated for one hour at 4° C. on an orbital shaker. Afterwards, 200 mL of cold water was added to each sample, and incubated for 20 min on ice before centrifugation at 3,000 rpm for 20 min at 4° C. The organic layer was collected followed by drying under a gentle stream of nitrogen gas on ice and stored at −80° C. until UPLC-MS analysis. The protein pellet was used to measure protein concentration for normalization using Bio-Rad protein assay. The samples were re-constituted in a solution containing 2-propanol/acetonitrile/water (4:3:1, v/v/v) containing mixture of internal standard (PLASH® LIPIDOMIX® Mass Spec Standard, Avanti Polar Lipids, INC.) for further UPLC-MS analysis. A quality control (QC) sample was prepared by combining 40 mL of each sample to assess the reproducibility of the features through the runs.
Chromatographic separation of extracted lipids was carried out at 55° C. on ACQUITY UPLC CSH C18 Column, (130 Å, 1.7 μm, 2.1 mm×100 mm) over a 20-min gradient elution. Mobile phase A consisted of ACN/water (60:40, v/v) and mobile phase B was 2-propanol/ACN/water (85:10:5, v/v/v) both containing 10 mM ammonium acetate and 0.1% acetic acid. […]

A549 cells = assay: Clonogenic assay with radiation, A549; type: cell-based
Description: (§1) 500 cells were seeded per well in 6-well plates in their respective growth media and incubated overnight. The next day, cells were co-treated with DMSO or compounds and radiation using a Gammacell 40 Caesium-137 irradiator (Theratronics). Plates were monitored every day using a light microscope for formation of colonies in the DMSO-treated wells. When colonies of >50 cells are clearly visible, the growth medium was discarded from all plates. The cells were washed with PBS, then fixed and stained with crystal violet solution (0.05% crystal violet, 1% formaldehyde, 1% methanol in PBS). Colonies were then directly visualized and counted.
(§2) The coefficient of drug interaction (CDI), used to compute interaction between two drugs, was used to quantify synergy between cell death inducers and radiation according to the formula CDI=AB/(A×B), where AB is the surviving fraction of the combination treatment, and A and B are the surviving fractions of the individual treatments. […]
(§3) It was then tested whether cell death enhancement of radiation with ferroptosis inducers occurred across diverse tumor cell types. […] In addition to the initial ferroptosis-sensitive HT-1080 sarcoma cell line, glioma and lung cancer cells were evaluated, due to the clinical relevance of radiation therapy for the treatment of these tumor types. […]

HT-1080 xenograft tumors = assay: HT-1080 tumor xenograft study in mice; details: 40 mg/kg IKE i.p. daily for 14 days
Description: The injections were repeated daily for 14 days. […] For the sorafenib experiment, the formulation used was 40 mg/kg sorafenib in 5% DMSO, 20% ethanol in water containing 30% w/v cyclodextrin. […] Tumor size was measured daily using calipers and mouse weight was measured daily.
The efficacy of the combined treatment regimen of radiation and ferroptosis inducer was evaluated in an in vivo tumor model. […] Athymic nude mice were implanted with subcutaneous HT-1080 fibrosarcoma cells to form xenograft tumors.

[2] = test system: TM00219 patient-derived xenograft tumors; assay: Patient-derived xenograft study in mice (TM00219 lung adenocarcinoma); type: in vivo; details: 40 mg/kg i.p. daily for 14 days, NSG mice
Description: The experiment was conducted according to the same protocol as the HT-1080 tumor xenograft study, with the exception that a single dose of radiation (sham or 6 Gy) was delivered to the tumor on day 1 of the experiment.
Finally, the effect of ferroptosis-inducing system xc^− inhibitors, in combination with radiation, was tested on a patient-derived xenograft (PDX) model of lung adenocarcinoma, which is another type of cancer commonly treated with radiation therapy. NSG mice engrafted with a human lung adenocarcinoma tumor (TM00219) were evaluated.

PC9 cells = assay: Clonogenic assay with radiation, PC9; type: cell-based
Description: as §1, §2, §3

[3] = test system: reduced glutathione (GSH) in HT-1080 cells; assay: Reduced glutathione measurement in cells; type: cell-based; details: HT-1080, irradiated cells (2 or 6 Gy, 24 hours) co-treated with 2 μM IKE
Description: Cystine taken up by system xc^− is reduced to cysteine, a building block in the biosynthesis of glutathione. […] Using a fluorometric GSH probe, we observed that treatment with 2 or 6 Gy radiation for 24 hours depleted GSH in a dose-dependent manner in HT-1080 cells (FIG. 2E). […] Indeed, the decrease in colony formation of HT-1080 cells following 2 or 4 Gy radiation was rescued by either glutathione methyl ester or N-acetylcysteine, which is a biological precursor to glutathione (FIG. 9).

[4] = type: in vivo; details: 40 mg/kg IKE i.p. 14 days, with or without 6 Gy radiation
[5] = test system: MDA in HT-1080 xenograft tumor tissue; assay: MDA immunohistochemistry on paraffin-embedded tumor sections; type: in vivo, mice; details: tumors resected at day 14
Description: Tumor tissue was fixed in 4% paraformaldehyde (PFA) for 24 h at 4° C. followed by washing three times with PBS. The samples were fixed in paraffin. Six series of […] sections were obtained with a sliding microtome. The serial sections were then mounted on gelatin-coated slide. The paraffin-embedded tissue sections were deparaffinized with xylene three times, 5 min each, followed by rehydrating in 100%, 90%, 70%, and 50% ethanol, two washes 5 min each, then rinsed with distilled water. Antigen retrieval was performed in sodium citrate buffer, pH 6.0, 95-100° C. for 10 min. Sections were then rinsed in PBST, 2 min each. A hydrophobic barrier pen was used to draw a circle on each slide. The slides were permeabilized with PBS/0.4% Triton X-100 twice before non-specific-binding blocking by incubating the sections with 10% goat serum (ThermoFisher 50197Z) for 30 minutes at room temperature. […] All images were captured on a Zeiss LSM 700 confocal microscope with constant laser intensity for all analyzed samples. The intensity above threshold of the fluorescent signal of the bound antibodies was analyzed using NIH ImageJ software.
Next, malondialdehyde (MDA) levels, as a biomarker for ferroptosis, were measured in tumor tissue using immunohistochemistry on fixed and paraffin-embedded tumor samples resected at day 14 post-treatment (FIG. 6B).

PTGS2 mRNA = assay: RT-qPCR of PTGS2 mRNA; type: cell-based; details: HT-1080, 6 Gy radiation, 24 hours; 100 nM RSL3 or 10 μM ferrostatin-1
Description: RNA was extracted using the Qiashredder and QIAGEN RNeasy Mini kits (QIAGEN) according to the manufacturer's protocol. 2 μg total RNA for each sample was used as input for each reverse transcription reaction. Quantitative PCR reactions were performed using the Power SYBR Green PCR Master Mix (Thermo Fisher Scientific). Triplicate samples per condition were analyzed on an Applied Biosystems 7300 qPCR instrument using absolute quantification settings. Differences in mRNA levels compared to ACTB internal reference control were computed between control and experimental conditions using the ΔΔCt method. The primers used in this study are listed below.

HT-1080 cells = assay: Cell Titer Glo cell viability assay with radiation; type: cell-based; details: HT-1080, 4 Gy radiation for 24 h
Description: HT-1080 cells were plated at 1,000 cells per well in white 96-well plates (100 uL per well) in technical duplicates. The cells were then treated with vehicle (DMSO), Ferrostatin-1, DFO, Z-VAD-FMK or Necrostatin-1S and incubated overnight. […] After another 24 h, 100 uL of 50% Cell Titer Glo (Promega) 50% cell culture medium was added to each well and incubated at room temperature with shaking for 15 min. Luminescence was measured using a Victor X5 plate reader (PerkinElmer). Experiments were performed three independent times with different passages for each cell line.

Row | SMILES | Abundance of 17 lipid species (FA 16:1, lysophospholipids, diacylglycerols) ([1]; HT-1080, 5 μM IKE for 12 h) | Abundance of 17 lipid species (FA 16:1, lysophospholipids, diacylglycerols) ([1]; HT-1080, 5 μM IKE for 12 h plus 6 Gy radiation for 24 h) | Highest observed coefficient of Drug Interaction (CDI) in combination with IR (A549 cells) | Tumor volume, IKE plus radiation (HT-1080 xenograft tumors; 6 Gy on days 2 and 4) | Tumor volume, IKE alone (HT-1080 xenograft tumors; athymic nude mice) | Tumor growth, combination with radiation vs all other groups ([2]; 6 Gy on day one) | Tumor growth, drug alone vs vehicle only [2] | Highest observed coefficient of Drug Interaction (CDI) in combination with IR (PC9 cells) | Levels of reduced glutathione [3] | Tolerability (weight loss) [4] | MDA signal in tumors, IKE and radiation vs vehicle [5] | MDA signal in tumors, IKE only vs vehicle [5] | PTGS2 mRNA (PTGS2 mRNA) | Cell viability after radiation (ATP-based luciferase assay) (HT-1080 cells)
1 | CC(C)Oc1ccc(C(=O)Cn2ccnc2)cc1-n1c(CN2CCN(C(=O)COc3ccc(Cl)cc3)CC2)nc2ccccc2c1=O [IKE, imidazole ketone erastin] | increased significantly | even larger increases | 0.30 | enhanced the effects of radiation in reducing tumor growth | not strongly effective | significant tumor growth inhibition | significant tumor control | 0.70 | further decreased | well tolerated | Significantly elevated MDA signal | No significant differences | – | –
2 | COC(=O)c1ccc([C@@H]2c3[nH]c4ccccc4c3C[C@@H](C(=O)OC)N2C(=O)CCl)cc1 [RSL3, Ras Synthetic Lethal 3] | – | – | 0.31 | – | – | – | – | 0.64 | – | – | – | – | even further enhanced | –
3 | CCOC(=O)c1ccc(NC2CCCCC2)c(N)c1 [ferrostatin-1] | – | – | – | – | – | – | – | – | – | – | – | – | reversed this induction of PTGS2 | rescued from death
